Assay results published in patent US9403832B2, “Pyrazolo[1,5-a]pyrimidine-based compounds, compositions comprising them, and methods of their use” (Lexicon Pharmaceuticals, Inc., priority 2012, dated 2016).

The compounds below were run against T1, AAK1 (Homo sapiens, UniProt Q2M2I8) (assay: P81 filter plate assay). Settings: full-length human AAK1, Mu2 substrate, 33P-ATP.
T1 construct: NP_055726.2
Format: biochemical
Method: Compounds were serially diluted into a Labcyte LDV plate (Labcyte, cat#LP-0200) using a Mutiprobe (PerkinElmer) and Biomek FX (Beckman Coulter) so that the highest compound concentration was at 96 μM. Compounds were then pinged (75 nL per well) into a Greiner 384-well reaction plate (Greiner, #781076) using an ECHO 550 Liquid Handler (Labcyte). A total of 12 μl reaction buffer (IMAP buffer containing Tween and DTT, from Molecular Devices) was then added to each well of columns 1 and 13 for the negative controls and 12 μl of 2× AAK1 (0.2 nM full-length human protein, NCBI accession no. NP_055726.2) was added to the remaining wells. Enzyme was then pre-incubated with compound for 10 minutes at RT. Reactions were initiated upon Minitrak (PerkinElmer) addition of 12 μl substrate mix containing 2× Mu2 (0.2 μM, full length human protein), 2× cold ATP (2 μM), and 1.3 μCi of hot ^33P-ATP. […] proceeded for one hour at RT. Meanwhile, Millipore 384-well P81 filter plates (Millipore, catalog #MZPHNOW10) were placed on a plate washer (Zoom ZW, from Titertek) and pre-wet with 50 μl 1% phosphoric acid. Kinase reactions were then stopped upon addition of 24 μl of 2% phosphoric acid to each well and the Minitrak was then used to transfer 40 μl from each well into the pre-wet Millipore 384-well P81 filter plates. Reaction mixtures were incubated for 10 minutes at RT in the P81 plates, followed by washing five times with 100 μl/well of 1% phosphoric acid using the Zoom filter washer. The bottom of each filter plate was sealed followed by addition of 20 μl Microscint 40 to each well, sealing the top of the plates with Flashplate cover, and then waiting one hour until reading on the TopCount (PerkinElmer).

T1 sequence (Q2M2I8 1-863 isoform Q2M2I8-2): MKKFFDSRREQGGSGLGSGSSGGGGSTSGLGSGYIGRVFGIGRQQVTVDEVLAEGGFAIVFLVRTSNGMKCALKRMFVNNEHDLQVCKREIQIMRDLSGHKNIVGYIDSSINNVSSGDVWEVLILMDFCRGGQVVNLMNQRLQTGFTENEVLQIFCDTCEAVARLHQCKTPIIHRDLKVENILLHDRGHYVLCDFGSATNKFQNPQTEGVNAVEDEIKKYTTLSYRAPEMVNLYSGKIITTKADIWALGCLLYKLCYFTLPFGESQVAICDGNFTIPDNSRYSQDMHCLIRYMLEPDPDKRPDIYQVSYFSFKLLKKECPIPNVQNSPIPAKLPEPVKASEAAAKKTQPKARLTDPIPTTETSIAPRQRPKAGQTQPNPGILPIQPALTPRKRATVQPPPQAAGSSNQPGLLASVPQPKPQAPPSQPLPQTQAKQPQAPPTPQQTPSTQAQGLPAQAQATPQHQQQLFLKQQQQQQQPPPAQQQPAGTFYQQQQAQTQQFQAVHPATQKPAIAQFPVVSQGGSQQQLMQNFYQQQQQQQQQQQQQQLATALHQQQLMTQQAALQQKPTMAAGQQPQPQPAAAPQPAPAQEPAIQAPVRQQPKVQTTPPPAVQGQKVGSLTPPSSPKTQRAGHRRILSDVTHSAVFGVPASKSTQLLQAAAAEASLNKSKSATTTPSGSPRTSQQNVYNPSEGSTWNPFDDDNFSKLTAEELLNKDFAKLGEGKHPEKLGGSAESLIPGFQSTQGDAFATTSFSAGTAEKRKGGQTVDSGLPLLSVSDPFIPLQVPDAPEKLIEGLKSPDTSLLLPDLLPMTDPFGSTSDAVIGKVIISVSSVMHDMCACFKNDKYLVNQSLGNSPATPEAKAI

| Structure (SMILES) | IC50 [µM] |
| --- | --- |
| COc1c(F)cccc1-c1cnn2ccc(N3CCN(C(=O)OC(C)C)CC3)nc12 [isopropyl 4-(3-(3-fluoro-2-methoxyphenyl)pyrazolo[1,5-a]pyrimidin-5-yl)piperazine-1-carboxylate] | ≤ 0.1 |
| Cc1ccc(-c2cnn3ccc(N4CCN(C(=O)OC(C)C)CC4)nc23)cc1F [isopropyl 4-(3-(3-fluoro-4-methylphenyl)pyrazolo[1,5-a]pyrimidin-5-yl)piperazine-1-carboxylate] | ≤ 0.1 |
| COc1cccnc1-c1cnn2ccc(N3CCN(C(=O)OC(C)C)CC3)nc12 [isopropyl 4-(3-(3-methoxypyridin-2-yl)pyrazolo[1,5-a]pyrimidin-5-yl)piperazine-1-carboxylate] | ≤ 1 |
| COC(=O)c1ccc(-c2cnn3ccc(N4CCN(C(=O)OC(C)C)CC4)nc23)cc1 [isopropyl 4-(3-(4-(methoxycarbonyl)phenyl)pyrazolo[1,5-a]pyrimidin-5-yl)piperazine-1-carboxylate] | ≤ 0.1 |
| COc1ncncc1-c1cnn2ccc(N3CCN(C(=O)OC(C)C)CC3)nc12 [isopropyl 4-(3-(4-methoxypyrimidin-5-yl)pyrazolo[1,5-a]pyrimidin-5-yl)piperazine-1-carboxylate] | ≤ 0.1 |
| CC(C)OC(=O)N1CCN(c2ccn3ncc(-c4ccc(F)nc4)c3n2)CC1 [isopropyl 4-(3-(6-fluoropyridin-3-yl)pyrazolo[1,5-a]pyrimidin-5-yl)piperazine-1-carboxylate] | ≤ 0.1 |
| CC(C)OC(=O)N1CCN(c2ccn3ncc(-c4cccc5nccn45)c3n2)CC1 [isopropyl 4-(3-(imidazo[1,2-a]pyridin-5-yl)pyrazolo[1,5-a]pyrimidin-5-yl)piperazine-1-carboxylate] | ≤ 0.1 |
| CC(C)OC(=O)N1CCN(c2ccn3ncc(-c4cccn5ccnc45)c3n2)CC1 [isopropyl 4-(3-(imidazo[1,2-a]pyridin-8-yl)pyrazolo[1,5-a]pyrimidin-5-yl)piperazine-1-carboxylate] | ≤ 0.1 |
| CC(C)OC(=O)N1CCN(c2ccn3ncc(-c4ccnnc4)c3n2)CC1 [isopropyl 4-(3-(pyridazin-4-yl)pyrazolo[1,5-a]pyrimidin-5-yl)piperazine-1-carboxylate] | ≤ 1 |
| CC(C)OC(=O)N1CCN(c2ccn3ncc(C(F)(F)F)c3n2)CC1 [isopropyl 4-(3-(trifluoromethyl)pyrazolo[1,5-a]pyrimidin-5-yl)piperazine-1-carboxylate] | ≤ 1 |
| [2H]C1([2H])N(C(=O)OC(C)C)C([2H])([2H])C([2H])([2H])N(c2ccn3ncc(Br)c3n2)C1([2H])[2H] [isopropyl 4-(3-bromopyrazolo[1,5-a]pyrimidin-5-yl)-d8-piperazine-1-carboxylate] | ≤ 0.1 |
| CC(C)OC(=O)N1CCN(c2ccn3ncc(Cl)c3n2)CC1 [isopropyl 4-(3-chloropyrazolo[1,5-a]pyrimidin-5-yl)piperazine-1-carboxylate] | ≤ 0.1 |
| CC(C)OC(=O)N1CCN(c2ccn3ncc(I)c3n2)CC1 [isopropyl 4-(3-iodopyrazolo[1,5-a]pyrimidin-5-yl)piperazine-1-carboxylate] | ≤ 0.1 |
| COc1ncc(C)cc1-c1cnn2ccc(N(C)CCN(C)C(=O)OC(C)C)nc12 [isopropyl (2-((3-(2-methoxy-5-methylpyridin-3-yl)pyrazolo[1,5-a]pyrimidin-5-yl)(methyl)amino)ethyl)(methyl)carbamate] | ≤ 0.1 |
| COc1nc(C)ccc1-c1cnn2ccc(N(C)CCN(C)C(=O)OC(C)C)nc12 [isopropyl (2-((3-(2-methoxy-6-methylpyridin-3-yl)pyrazolo[1,5-a]pyrimidin-5-yl)(methyl)amino)ethyl)(methyl)carbamate] | ≤ 0.1 |
| COc1ncccc1-c1cnn2ccc(N(C)CCN(C)C(=O)OC(C)C)nc12 [isopropyl (2-((3-(2-methoxypyridin-3-yl)pyrazolo[1,5-a]pyrimidin-5-yl)(methyl)amino)ethyl)(methyl)carbamate] | ≤ 0.1 |
| COc1ncccc1-c1cnn2ccc(NCCNC(=O)OC(C)C)nc12 [isopropyl (2-((3-(2-methoxypyridin-3-yl)pyrazolo[1,5-a]pyrimidin-5-yl)amino)ethyl)carbamate] | ≤ 0.1 |
| COc1ncccc1-c1cnn2ccc(OCCN(C)C(=O)OC(C)C)nc12 [isopropyl (2-((3-(2-methoxypyridin-3-yl)pyrazolo[1,5-a]pyrimidin-5-yl)oxy)ethyl)(methyl)carbamate] | ≤ 0.1 |
| [2H]C1([2H])N(C(=O)OC(C)(C)C)C([2H])([2H])C([2H])([2H])N(c2ccn3ncc(Br)c3n2)C1([2H])[2H] [tert-butyl 4-(3-bromopyrazolo[1,5-a]pyrimidin-5-yl)-d8-piperazine-1-carboxylate] | ≤ 0.1 |

Now from value to compound:

| IC50 [µM] | Structure (SMILES) |
| --- | --- |
| ≤ 0.1 | COc1ccc(-c2cnn3ccc(N4CCN(C(=O)OC(C)C)CC4)nc23)c(F)n1 [isopropyl 4-(3-(2-fluoro-6-methoxypyridin-3-yl)pyrazolo[1,5-a]pyrimidin-5-yl)piperazine-1-carboxylate] |
| ≤ 0.01 | CC(C)OC(=O)N1CCN(c2ccn3ncc(-c4cccnc4F)c3n2)CC1 [isopropyl 4-(3-(2-fluoropyridin-3-yl)pyrazolo[1,5-a]pyrimidin-5-yl)piperazine-1-carboxylate] |
| ≤ 0.01 | COc1nc(C)ccc1-c1cnn2ccc(N3CCN(C(=O)OC(C)C)CC3)nc12 [isopropyl 4-(3-(2-methoxy-6-methylpyridin-3-yl)pyrazolo[1,5-a]pyrimidin-5-yl)piperazine-1-carboxylate] |
| ≤ 0.01 | COc1ccccc1-c1cnn2ccc(N3CCN(C(=O)OC(C)C)CC3)nc12 [isopropyl 4-(3-(2-methoxyphenyl)pyrazolo[1,5-a]pyrimidin-5-yl)piperazine-1-carboxylate] |
| ≤ 0.1 | COc1cc(-c2cnn3ccc(N4CCN(C(=O)OC(C)C)CC4)nc23)ccn1 [isopropyl 4-(3-(2-methoxypyridin-4-yl)pyrazolo[1,5-a]pyrimidin-5-yl)piperazine-1-carboxylate] |
| ≤ 0.1 | Cc1ncccc1-c1cnn2ccc(N3CCN(C(=O)OC(C)C)CC3)nc12 [isopropyl 4-(3-(2-methylpyridin-3-yl)pyrazolo[1,5-a]pyrimidin-5-yl)piperazine-1-carboxylate] |
| ≤ 0.01 | COc1cnccc1-c1cnn2ccc(N3CCN(C(=O)OC(C)C)CC3)nc12 [isopropyl 4-(3-(3-methoxypyridin-4-yl)pyrazolo[1,5-a]pyrimidin-5-yl)piperazine-1-carboxylate] |
| ≤ 0.01 | COc1ncc(F)cc1-c1cnn2ccc(N3CCN(C(=O)OC(C)C)CC3)nc12 [isopropyl 4-(3-(5-fluoro-2-methoxypyridin-3-yl)pyrazolo[1,5-a]pyrimidin-5-yl)piperazine-1-carboxylate] |
| ≤ 0.01 | CC(C)OC(=O)N1CCN(c2ccn3ncc(-c4cncc(F)c4)c3n2)CC1 [isopropyl 4-(3-(5-fluoropyridin-3-yl)pyrazolo[1,5-a]pyrimidin-5-yl)piperazine-1-carboxylate] |
| ≤ 0.01 | COc1ncc(F)cc1-c1cnn2ccc(N(C)CCN(C)C(=O)OC(C)C)nc12 [isopropyl (2-((3-(5-fluoro-2-methoxypyridin-3-yl)pyrazolo[1,5-a]pyrimidin-5-yl)(methyl)amino)ethyl)(methyl)carbamate] |
| ≤ 0.01 | COc1ncc(F)cc1-c1cnn2ccc(N(C)CCCN(C)C(=O)OC(C)C)nc12 [isopropyl (3-((3-(5-fluoro-2-methoxypyridin-3-yl)pyrazolo[1,5-a]pyrimidin-5-yl)(methyl)amino)propyl)(methyl)carbamate] |
